This note sets out measurements from patent US20240238423A9, “TETRAHYDROISOQUINOLINE HETEROBIFUNCTIONAL BCL-XL DEGRADERS” (Treeline Biosciences, Inc., priority 2022, published 2024).

This experiment concerns the target T1, Human BCL-XL protein (N-terminal HiBiT tagged BCL-XL in HT1080 cells) (Homo sapiens, UniProt Q07817).
T1 construct: expressed in transfected cells; host or cells: HT-1080 (ATCC CCL-121), stably transduced with lentivirus pLV-UBC-N-HiBiT-BCL-XL-PGK-puro and selected with puromycin
Description: HiBiT based degradation assay. The format is cell-based. The settings on record: HT1080 cells expressing HiBiT-BCL-XL; for Ymin (6 h) / Ymin (24 h): BCL-XL degradation normalized with DMSO control; for DC50: BCL-XL degradation. The method, boiled down:
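HT1080 cells stably transduced by lentivirus with N-terminally HiBiT-tagged human BCL-XL and kept under 1 μg/mL puromycin selection were seeded at three thousand cells per well in 40 μL RPMI 1640 into 384-well plates pre-spotted with compounds across a concentration range. Luminescence was read on a PHERAstar FSX, normalized to DMSO, and fitted with a four-parameter logistic model.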
Background: With HiBiT, luminescence reflects the tagged protein that the partner subunit can reach.

Where two headings read alike, the source gives them in different places.

T1 sequence (Q07817 whole entry): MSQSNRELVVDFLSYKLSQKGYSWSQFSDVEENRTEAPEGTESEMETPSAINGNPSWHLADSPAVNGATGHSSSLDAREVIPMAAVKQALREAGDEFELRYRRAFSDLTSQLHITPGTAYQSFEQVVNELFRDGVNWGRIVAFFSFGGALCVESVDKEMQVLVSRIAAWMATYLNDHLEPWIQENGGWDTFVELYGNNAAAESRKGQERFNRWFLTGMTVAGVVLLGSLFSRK

On to `Cc1c(-c2ccc(N3CCc4cccc(C(=O)Nc5nc6ccccc6s5)c4C3)nc2C(=O)NCCCCCC(=O)Nc2cccc3c(C4CCC(=O)NC4=O)nn(C)c23)cnn1CC12CC3CC(CC(C3)C1)C2` (stereo not drawn) [Compound 108, 2-(5-(1-(((3r,5r,7r)-adamantan-1-yl)methyl)-5-methyl-1H-pyrazol-4-yl)-6-((6-((3-(2,6-dioxopiperidin-3-yl)-1-methyl-1H-indazol-7-yl)amino)-6-oxohexyl)carbamoyl)pyridin-2-yl)-N-(benzo[d]thiazol-2-yl)-1,2,3,4-tetrahydroisoquinoline-8-carboxamide], for which, for the setting “6 h”, the “Ymin (6 h)” value is “B (50% ≤ Ymin < 70%)”. Where the note is “6 h, read-out: EC50 (6 h)”, the DC50 is below 100 nM.
The like results for `Cc1c(-c2ccc(N3CCc4cccc(C(=O)Nc5nc6ccccc6s5)c4C3)nc2C(=O)NCCCCCCCCCC(=O)Nc2cccc3c(C4CCC(=O)NC4=O)nn(C)c23)cnn1CC12CC3CC(CC(C3)C1)C2` [Compound 109, 2-(5-(1-((3R, 5R, 7R)-adamantan-1-ylmethyl)-5-methyl-1H-pyrazol-4-yl)-6-((10-((3-(2,6-dioxopiperidin-3-yl)-1-methyl-1H-indazol-7-yl)amino)-10-oxodecyl)carbamoyl)pyridin-2-yl)-N-(benzo[d]thiazol-2-yl)-1,2,3,4-tetrahydroisoquinoline-8-carboxamide] were, in that order, “B (50% ≤ Ymin < 70%)” and below 100 nM.
The like results for `Cc1c(-c2ccc(N3CCc4cccc(C(=O)Nc5nc6ccccc6s5)c4C3)nc2C(=O)NCCCCCCCCCCCC(=O)Nc2cccc3c(C4CCC(=O)NC4=O)nn(C)c23)cnn1CC12CC3CC(CC(C3)C1)C2` (stereo not drawn) [Compound 110, 2-(5-(1-((3r,5r,7r)-adamantan-1-ylmethyl)-5-methyl-1H-pyrazol-4-yl)-6-((12-((3-(2,6-dioxopiperidin-3-yl)-1-methyl-1H-indazol-7-yl)amino)-12-oxododecyl)carbamoyl)pyridin-2-yl)-N-(benzo[d]thiazol-2-yl)-1,2,3,4-tetrahydroisoquinoline-8-carboxamide] were, in that order, “B (50% ≤ Ymin < 70%)” and below 100 nM.
The matching figures for `Cc1c(-c2ccc(N3CCc4cccc(C(=O)Nc5nc6ccccc6s5)c4C3)nc2C(=O)NCCCCCC(=O)Nc2ccc3c(C4CCC(=O)NC4=O)nn(C)c3c2)cnn1CC12CC3CC(CC(C3)C1)C2` (stereo not drawn) [Compound 111, 2-(5-(1-(((3r,5r,7r)-adamantan-1-yl)methyl)-5-methyl-1H-pyrazol-4-yl)-6-((6-((3-(2,6-dioxopiperidin-3-yl)-1-methyl-1H-indazol-6-yl)amino)-6-oxohexyl)carbamoyl)pyridin-2-yl)-N-(benzo[d]thiazol-2-yl)-1,2,3,4-tetrahydroisoquinoline-8-carboxamide]: “B (50% ≤ Ymin < 70%)” and below 100 nM.
In the case of `Cc1c(-c2ccc(N3CCc4cccc(C(=O)Nc5nc6ccccc6s5)c4C3)nc2C(=O)NCCCCCCCCCC(=O)Nc2ccc3c(C4CCC(=O)NC4=O)nn(C)c3c2)cnn1CC12CC3CC(CC(C3)C1)C2` (stereo not drawn) [Compound 112, 2-[5-[1-(1-adamantylmethyl)-5-methyl-pyrazol-4-yl]-6-[[10-[[3-(2,6-dioxo-3-piperidyl)-1-methyl-indazol-6-yl]amino]-10-oxo-decyl]carbamoyl]-2-pyridyl]-N-(1,3-benzothiazol-2-yl)-3,4-dihydro-1H-isoquinoline-8-carboxamide], the “Ymin (6 h)” value (6 h) was “B (50% ≤ Ymin < 70%)”. Besides, under “6 h, read-out: EC50 (6 h)”, the DC50 was below 100 nM.
The matching figures for `Cc1c(-c2ccc(N3CCc4cccc(C(=O)Nc5nc6ccccc6s5)c4C3)nc2C(=O)NCCCCCCCCCCCC(=O)Nc2ccc3c(C4CCC(=O)NC4=O)nn(C)c3c2)cnn1CC12CC3CC(CC(C3)C1)C2` (stereo not drawn) [Compound 113, 2-(5-(1-((3r,5r,7r)-adamantan-1-ylmethyl)-5-methyl-1H-pyrazol-4-yl)-6-((12-((3-(2,6-dioxopiperidin-3-yl)-1-methyl-1H-indazol-6-yl)amino)-12-oxododecyl)carbamoyl)pyridin-2-yl)-N-(benzo[d]thiazol-2-yl)-1,2,3,4-tetrahydroisoquinoline-8-carboxamide]: “B (50% ≤ Ymin < 70%)” and 100 to 1000 nM.
Regarding `Cc1c(-c2ccc(N3CCc4cccc(C(=O)Nc5nc6ccccc6s5)c4C3)nc2C(=O)NCCCCCCCC(=O)Nc2cccc3c(C4CCC(=O)NC4=O)nn(C)c23)cnn1CC12CC3CC(CC(C3)C1)C2` (stereo not drawn) [Compound 114, 2-[5-[1-(1-adamantylmethyl)-5-methyl-pyrazol-4-yl]-6-[[8-[[3-(2,6-dioxo-3-piperidyl)-1-methyl-indazol-7-yl]amino]-8-oxo-octyl]carbamoyl]-2-pyridyl]-N-(1,3-benzothiazol-2-yl)-3,4-dihydro-1H-isoquinoline-8-carboxamide], the “Ymin (6 h)” value (6 h) was “A (Ymin < 50%)”. In addition, where the note is “6 h, read-out: EC50 (6 h)”, the DC50 was below 100 nM.
The like results for `Cc1c(-c2ccc(N3CCc4cccc(C(=O)Nc5nc6ccccc6s5)c4C3)nc2C(=O)NCC(=O)Nc2ccc3c(C4CCC(=O)NC4=O)nn(C)c3c2)cnn1CC12CC3CC(CC(C3)C1)C2` [Compound 115, 2-(5-(1-((1R,3S)-adamantan-1-ylmethyl)-5-methyl-1H-pyrazol-4-yl)-6-((2-((3-(2,6-dioxopiperidin-3-yl)-1-methyl-1H-indazol-6-yl)amino)-2-oxoethyl)carbamoyl)pyridin-2-yl)-N-(benzo[d]thiazol-2-yl)-1,2,3,4-tetrahydroisoquinoline-8-carboxamide] were, in that order, “B (50% ≤ Ymin < 70%)” and below 100 nM.
`Cc1c(OCCCN2C[C@@H](C)N(CC(=O)Nc3ccc4c(C5CCC(=O)NC5=O)nn(C)c4c3)[C@@H](C)C2)cccc1-c1ccc(N2CCc3cccc(C(=O)Nc4nc5ccccc5s4)c3C2)nc1C(=O)O` (stereo partly drawn) [Compound 116a, 6-[8-(1,3-benzothiazol-2-ylcarbamoyl)-3,4-dihydro-1H-isoquinolin-2-yl]-3-[3-[3-[(3S,5R)-4-[2-[[3-(2,6-dioxo-3-piperidyl)-1-methyl-indazol-6-yl]amino]-2-oxo-ethyl]-3,5-dimethyl-piperazin-1-yl]propoxy]-2-methyl-phenyl]pyridine-2-carboxylic acid]: the “Ymin (6 h)” value (6 h) is “A (Ymin < 50%)”. The “Ymin (24 h)” value (24 h) was “A (Ymin < 50%)”. Also, the DC50 runs as follows: (6 h, read-out: EC50 (6 h)) below 100 nM; (24 h, read-out: EC50 (24 h)) below 100 nM.
Take `Cc1c(OCCCN2C[C@@H](C)N(CC(=O)Nc3cccc4c(C5CCC(=O)NC5=O)nn(C)c34)[C@@H](C)C2)cccc1-c1ccc(N2CCc3cccc(C(=O)Nc4nc5ccccc5s4)c3C2)nc1C(=O)O` (stereo partly drawn) [Compound 117a, 6-[8-(1,3-benzothiazol-2-ylcarbamoyl)-3,4-dihydro-1H-isoquinolin-2-yl]-3-[3-[3-[(3S,5R)-4-[2-[[3-(2,6-dioxo-3-piperidyl)-1-methyl-indazol-7-yl]amino]-2-oxo-ethyl]-3,5-dimethyl-piperazin-1-yl]propoxy]-2-methyl-phenyl]pyridine-2-carboxylic acid]: the “Ymin (6 h)” value (6 h) is listed as “B (50% ≤ Ymin < 70%)”. For the same compound, the “Ymin (24 h)” value (24 h) was “B (50% ≤ Ymin < 70%)”. In addition, the DC50 is below 100 nM (6 h, read-out: EC50 (6 h)) and below 100 nM (24 h, read-out: EC50 (24 h)).
As for `Cc1c(OCCOc2ccc(CC(=O)Nc3cccc4c(C5CCC(=O)NC5=O)nn(C)c34)cc2)cccc1-c1ccc(N2CCc3cccc(C(=O)Nc4nc5ccccc5s4)c3C2)nc1C(=O)O` (stereo not drawn) [Compound 118, 6-[8-(1,3-benzothiazol-2-ylcarbamoyl)-3,4-dihydro-1H-isoquinolin-2-yl]-3-[3-[2-[4-[2-[[3-(2,6-dioxo-3-piperidyl)-1-methyl-indazol-7-yl]amino]-2-oxo-ethyl]phenoxy]ethoxy]-2-methyl-phenyl]pyridine-2-carboxylic acid], under “6 h”, the “Ymin (6 h)” value is reported as “B (50% ≤ Ymin < 70%)”. For the same compound, the “Ymin (24 h)” value (24 h) was “B (50% ≤ Ymin < 70%)”. Also, the DC50 runs as follows: (6 h, read-out: EC50 (6 h)) 100 to 1000 nM; (24 h, read-out: EC50 (24 h)) 1000 to 10000 nM.
Turning to `Cc1cc(OCCCN2CCN(CC(=O)Nc3ccc4c(C5CCC(=O)NC5=O)nn(C)c4c3)CC2)ccc1-c1ccc(N2CCc3cccc(C(=O)Nc4nc5ccccc5s4)c3C2)nc1C(=O)O` (stereo not drawn) [Compound 119, 6-[8-(1,3-benzothiazol-2-ylcarbamoyl)-3,4-dihydro-1H-isoquinolin-2-yl]-3-[4-[3-[4-[2-[[3-(2,6-dioxo-3-piperidyl)-1-methyl-indazol-6-yl]amino]-2-oxo-ethyl]piperazin-1-yl]propoxy]-2-methyl-phenyl]pyridine-2-carboxylic acid], the “Ymin (6 h)” value (6 h) is listed as “A (Ymin < 50%)”. In addition, under “24 h”, the “Ymin (24 h)” value is given as “A (Ymin < 50%)”. The DC50 reads like this: (6 h, read-out: EC50 (6 h)) below 100 nM; (24 h, read-out: EC50 (24 h)) below 100 nM.
With `Cc1c(OCCCN2CCC(CC(=O)Nc3ccc4c(C5CCC(=O)NC5=O)nn(C)c4c3)CC2)cccc1-c1ccc(N2CCc3cccc(C(=O)Nc4nc5ccccc5s4)c3C2)nc1C(=O)O` (stereo not drawn) [Compound 120, 6-[8-(1,3-benzothiazol-2-ylcarbamoyl)-3,4-dihydro-1H-isoquinolin-2-yl]-3-[3-[3-[4-[2-[[3-(2,6-dioxo-3-piperidyl)-1-methyl-indazol-6-yl]amino]-2-oxo-ethyl]-1-piperidyl]propoxy]-2-methyl-phenyl]pyridine-2-carboxylic acid], the “Ymin (6 h)” value (6 h) is recorded as “B (50% ≤ Ymin < 70%)”. The “Ymin (24 h)” value (24 h) was “B (50% ≤ Ymin < 70%)”. Besides, the DC50 reads like this: (6 h, read-out: EC50 (6 h)) below 100 nM; (24 h, read-out: EC50 (24 h)) below 100 nM.
